According to patent publication US9771357B2, “ALXR agonist compound” (ONO PHARMACEUTICAL CO., LTD., priority 2013, dated 2017):

Target: T1, ALXR (Homo sapiens, UniProt P25090)
T1 construct: expressed in transfected cells; host or cells: CHO-K1
T1 sequence (P25090 1-351): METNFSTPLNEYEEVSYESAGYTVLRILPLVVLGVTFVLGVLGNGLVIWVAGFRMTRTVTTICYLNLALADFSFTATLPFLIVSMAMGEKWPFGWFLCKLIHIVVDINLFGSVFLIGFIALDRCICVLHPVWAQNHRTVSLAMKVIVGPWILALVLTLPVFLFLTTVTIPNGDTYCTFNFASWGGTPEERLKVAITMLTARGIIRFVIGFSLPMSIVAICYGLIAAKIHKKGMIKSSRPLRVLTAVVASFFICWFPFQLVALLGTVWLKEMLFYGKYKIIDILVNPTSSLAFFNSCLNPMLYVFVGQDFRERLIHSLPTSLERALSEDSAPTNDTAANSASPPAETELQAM
Test: IP1 (Inositol Monophosphate) Assay
Format: cell-based
Conditions: ALXR/Gα16 expression CHO-K1 cell strain; for IP1 Concentration: compound at 3 μM, 30 minutes, medium group 293.6
Protocol: IP1 (Inositol Monophosphate) Assay
An ALXR/Gα16 expression CHO-K1 cell strain having 3×10^4 cells/100 μL was seeded on a 96-well plate using an F-12 culture medium (10% FBS, 100 μmol/L nonessential amino acid, 100 U/mL penicillin, 100 μg/mL streptomycin, 0.25 μg/mL Amphotericin B, 400 μg/mL Geneticin, and 5 μg/mL Puromycin), and cultured at 37° C. in 5% CO2 overnight. After the culture supernatant was removed, a 70-μL Basal buffer (10 mmol/L HEPES, 1 mmol/L CaCl2, 0.5 mmol/L MgCl2, 4.2 mmol/L KCl, 146 mmol/L NaCl, 5.5 mmol/L glucose, 50 mmol/L LiCl), each buffer containing one of the compounds and the reference example compound, was added. Here, as the medium group, a Basal buffer containing 1% DMSO was used. After the cell strain was further cultured at 37° C. in 5% CO2 for 30 minutes, IP1-d2 conjugate (Cisbio) and Anti-IP1 cryptate Tb conjugate (Cisbio) diluted with Lysis buffer (Cisbio) were each added in an amount of 15 μL. The culture was allowed to stand for 1 hour under shaded conditions at room temperature. Subsequently, using EnVision (PerkinElmer), measurement was performed at an excitation wavelength of 320 nm and fluorescence wavelengths of 620 nm and 665 nm, and the fluorescence ratio 665 nm/620 nm was calculated. With respect to the IP1 concentration, a calibration curve was produced using an IP1 calibrator (Cisbio) to be converted into concentration. The measured values were analyzed using XLfit (IDBS).

Row | Compound | IP1 Concentration [nmol/L] | enhancement of IP1 concentration as compared with the medium group (3 μM)
1 | N#Cc1sc(C2CCN(C(=O)Nc3ccc(C(F)(F)F)cc3)CC2)nc1-c1ccccc1 [Example 60, 4-(5-Cyano-4-phenyl-1,3-thiazol-2-yl)-N-[4-(trifluoromethyl)phenyl]-1-piperidinecarboxamide] | 1020.9 | 
2 | Cc1sc(C2(O)CCN(C(=O)Nc3ccc(C(F)(F)F)cc3)CC2)nc1-c1cccc(F)c1 [27(1), 4-[4-(3-Fluorophenyl)-5-methyl-1,3-thiazol-2-yl]-4-hydroxy-N-[4-(trifluoromethyl)phenyl]-1-piperidinecarboxamide] | 539.3 | 
3 | Cc1sc(C2CCN(C(=O)Nc3ccc(C(F)(F)F)cc3)CC2)nc1-c1cccc(F)c1 [29(2)] | 853.7 | 
4 | O=C(Nc1ccc(C(F)(F)F)cc1)N1CCC(c2nc(-c3cccnc3)cs2)CC1 [Example 40, 4-[4-(3-Pyridyl)-1,3-thiazol-2-yl]-N-[4-(trifluoromethyl)phenyl]-1-piperidinecarboxamide] | 789.9 | 
5 | Cc1sc(C2(NS(C)(=O)=O)CCN(C(=O)Nc3ccc(C(F)(F)F)cc3)CC2)nc1-c1ccccc1 [Example 51, 4-(5-Methyl-4-phenyl-1,3-thiazol-2-yl)-4-[(methylsulfonyl)amino]-N-[4-(trifluoromethyl)phenyl]-1-piperidinecarboxamide] | 592.1 | 
6 | O=C(Nc1cccnc1)N1CCC(c2nc(-c3ccccc3)cs2)CC1 [Reference Example Compound, 4-(4-Phenyl-1,3-thiazol-2-yl)-N-(3-pyridyl)-1-piperidinecarboxamide, reference compound] | 282.5 | no enhancement was seen
